Measured values from DBAASP.
Converted amounts (≈) assume the structure as drawn.

How the values were obtained:
Experiment in all cases: ≥ marks a high value that may be exact or a test limit, other limits are often not marked, values filed in µg/mL are converted to µM
[1] = system: Pseudomonas aeruginosa ATCC 9027
[2] = system: Staphylococcus aureus ATCC 6538
[3] = system: Candida albicans ATCC 90028
[4] = system: Escherichia coli ATCC 25726
[5] = system: Staphylococcus aureus ATCC 25923
[6] = system: Staphylococcus aureus NCTC 10788
Bacillus subtilis = system: Bacillus subtilis
Escherichia coli = system: Escherichia coli
Salmonella typhimurium = system: Salmonella typhimurium
Staphylococcus aureus = system: Staphylococcus aureus
[7] = system: Escherichia coli DH5alpha
Bacillus cereus = system: Bacillus cereus

Row | MIC (Escherichia coli) | MIC (Staphylococcus aureus) | MIC (Bacillus cereus) | SMILES | further results
1 | – | – | – | CC(C)C[C@H](NC(=O)[C@H](CC(C)C)NC(=O)[C@H](CCCCN)NC(=O)[C@H](CCCCN)NC(=O)[C@H](C)NC(=O)[C@H](C)NC(=O)[C@H](CC(C)C)NC(=O)[C@H](CCCCN)NC(=O)[C@H](CC(C)C)NC(=O)[C@H](CC(C)C)NC(=O)[C@H](CCCCN)NC(=O)[C@H](C)NC(=O)[C@@H](N)Cc1ccccc1)C(N)=O [FAKLLKLAAKKLL] | MIC [1]: 3.43 µM (≈ 5 µg/mL); MIC [2]: 137 µM (≈ 200 µg/mL)
2 | – | – | – | CC[C@H](C)[C@H](NC(=O)[C@H](CCCCN)NC(=O)CNC(=O)[C@H](C)NC(=O)[C@@H](NC(=O)[C@H](CO)NC(=O)CNC(=O)[C@H](C)NC(=O)[C@H](CCCCN)NC(=O)[C@H](CO)NC(=O)[C@H](C)NC(=O)[C@H](CCSC)NC(=O)CN)C(C)C)C(=O)N[C@@H](C)C(=O)N[C@@H](CCCCN)C(=O)N[C@@H](Cc1ccccc1)C(=O)N[C@@H](C)C(=O)N[C@@H](CC(C)C)C(=O)NCC(=O)N[C@@H](C)C(=O)N[C@@H](CC(C)C)C(N)=O [GMASKAGSVAGKIAKFALGAL] | MIC [3]: ≥ 160 µM; MIC [4]: ≥ 80 µM; MIC [5]: 80 µM (≈ 156 µg/mL)
3 | – | – | – | CC(C)C[C@H](NC(=O)[C@H](CC(C)C)NC(=O)CNC(=O)CNC(=O)[C@H](CC(C)C)NC(=O)[C@@H](NC(=O)[C@H](CC(N)=O)NC(=O)[C@H](CO)NC(=O)[C@@H](NC(=O)[C@H](CC(C)C)NC(=O)CNC(=O)[C@H](CC(C)C)NC(=O)[C@@H](NC(=O)[C@@H]1CCCN1C(=O)CNC(=O)[C@H](CC(C)C)NC(=O)[C@@H](N)CC(C)C)C(C)C)C(C)C)C(C)C)C(N)=O [LLGPVLGLVSNVLGGLL] | MIC [6]: ≥ 157 µM
4 | 8 µM (≈ 14.2 µg/mL) | 8 µM (≈ 14.2 µg/mL) | – | CC[C@H](C)[C@H](NC(=O)[C@H](CCCN=C(N)N)NC(=O)[C@@H](NC(=O)[C@@H](NC(=O)[C@@H](NC(=O)CN)C(C)C)C(C)C)C(C)C)C(=O)NCC(=O)N[C@@H](CCCN=C(N)N)C(=O)N[C@H](C(=O)N[C@H](C(=O)N[C@H](C(=O)N[C@@H](CCCN=C(N)N)C(=O)NCC(=O)N[C@H](C(=O)N[C@@H](CCCN=C(N)N)C(=O)N[C@@H](CCCN=C(N)N)C(N)=O)C(C)C)C(C)C)C(C)C)C(C)C [GVVVRIGRVVVRGVRR] | MIC (Bacillus subtilis): 8 µM (≈ 14.2 µg/mL); MIC (Salmonella typhimurium): 4 µM (≈ 7.1 µg/mL)
5 | – | 4.3 µM (≈ 12.1 µg/mL) | – | CC[C@H](C)[C@H](NC(=O)CN)C(=O)NCC(=O)N[C@@H](C)C(=O)N[C@H](C(=O)N[C@@H](CC(C)C)C(=O)N[C@@H](CCCCN)C(=O)N[C@H](C(=O)N[C@@H](CC(C)C)C(=O)N[C@H](C(=O)N[C@H](C(=O)NCC(=O)N[C@@H](C)C(=O)N1CCC[C@H]1C(=O)N[C@@H](C)C(=O)N[C@@H](CC(C)C)C(=O)N[C@H](C(=O)N[C@@H](CO)C(=O)N[C@@H](Cc1c[nH]c2ccccc12)C(=O)N[C@H](C(=O)N[C@@H](CCCCN)C(=O)N[C@@H](CCCN=C(N)N)C(=O)N[C@@H](CCCCN)C(=O)N[C@@H](CCCN=C(N)N)C(=O)N[C@@H](CCC(N)=O)C(=O)N[C@@H](CCC(N)=O)C(N)=O)[C@@H](C)CC)[C@@H](C)CC)[C@@H](C)O)[C@@H](C)O)C(C)C)C(C)C [GIGAVLKVLTTGAPALISWIKRKRQQ] | MIC (Bacillus subtilis): 2.4 µM (≈ 6.73 µg/mL); MIC [7]: 4.5 µM (≈ 12.6 µg/mL)
6 | 59.5 µM (≈ 128 µg/mL) | > 59.5 µM | ≥ 59.5 µM | CC(C)C[C@H](NC(=O)[C@@H](N)Cc1ccccc1)C(=O)NCC(=O)N[C@@H](CCCCN)C(=O)N[C@H](C(=O)N[C@H](C(=O)N[C@@H](CCCCN)C(=O)N[C@@H](CCCCN)C(=O)N[C@@H](C)C(=O)N[C@@H](CO)C(=O)N[C@@H](CCCCN)C(=O)N[C@H](C(=O)N[C@@H](Cc1ccccc1)C(=O)N1CCC[C@H]1C(=O)N[C@@H](C)C(=O)N[C@H](C(=O)N[C@@H](Cc1ccccc1)C(=O)NCC(=O)N[C@@H](CCCCN)C(=O)N[C@H](C(=O)O)C(C)C)C(C)C)C(C)C)C(C)C)C(C)C [FLGKVVKKASKVFPAVFGKV] | –
7 | – | – | – | CC(C)C[C@H](NC(=O)[C@H](CC(C)C)NC(=O)[C@H](CCCCN)NC(=O)[C@H](CCCCN)NC(=O)[C@H](C)NC(=O)[C@H](CC(C)C)NC(=O)[C@H](CCCCN)NC(=O)[C@H](C)NC(=O)[C@H](CC(C)C)NC(=O)[C@H](C)NC(=O)[C@H](CCCCN)NC(=O)[C@H](C)NC(=O)[C@@H](N)Cc1ccccc1)C(N)=O [FAKALAKLAKKLL] | MIC [1]: 3.53 µM (≈ 5 µg/mL); MIC [2]: 3.53 µM (≈ 5 µg/mL)
8 | > 131 µM | – | ≥ 131 µM | CC[C@H](C)[C@H](NC(=O)[C@H](CC(C)C)NC(=O)[C@H](CO)NC(=O)[C@@H]1CCCN1C(=O)[C@@H](NC(=O)[C@@H](NC(=O)[C@H](CCCCN)NC(=O)[C@H](CO)NC(=O)[C@H](C)NC(=O)[C@@H](NC(=O)[C@H](CO)NC(=O)CNC(=O)[C@@H](NC(=O)[C@H](C)NC(=O)[C@@H](N)CO)C(C)C)C(C)C)C(C)C)C(C)C)C(=O)N[C@@H](CO)C(=O)N[C@@H](CCCCN)C(=O)N[C@H](C(=O)N[C@H](C(=O)N[C@@H](CCCCN)C(=O)O)[C@@H](C)O)C(C)C [SAVGSVASKVVPSLISKVTK] | –
9 | 28.8 µM (≈ 64 µg/mL) | 1.8 µM (≈ 4 µg/mL) | 7.19 µM (≈ 16 µg/mL) | CC(C)C[C@H](NC(=O)[C@H](CCCCN)NC(=O)[C@H](Cc1ccccc1)NC(=O)[C@@H](NC(=O)[C@@H](NC(=O)CNC(=O)[C@H](CC(C)C)NC(=O)[C@@H](N)Cc1ccccc1)C(C)C)C(C)C)C(=O)N[C@@H](C)C(=O)N[C@@H](CO)C(=O)N[C@@H](CCCCN)C(=O)N[C@H](C(=O)N[C@@H](Cc1ccccc1)C(=O)N1CCC[C@H]1C(=O)N[C@@H](C)C(=O)N[C@H](C(=O)N[C@@H](Cc1ccccc1)C(=O)N[C@@H](CCCCN)C(=O)N[C@@H](CCCCN)C(=O)N[C@H](C(=O)O)C(C)C)C(C)C)C(C)C [FLGVVFKLASKVFPAVFKKV] | –
10 | > 121 µM | > 121 µM | ≥ 121 µM | CC(C)C[C@H](NC(=O)[C@@H](N)Cc1ccccc1)C(=O)NCC(=O)N[C@@H](CO)C(=O)N[C@H](C(=O)N[C@@H](Cc1ccccc1)C(=O)N[C@@H](CCCCN)C(=O)N[C@@H](CO)C(=O)N[C@@H](C)C(=O)N[C@@H](CO)C(=O)N[C@@H](CCCCN)C(=O)N[C@H](C(=O)N[C@@H](Cc1ccccc1)C(=O)N1CCC[C@H]1C(=O)N[C@@H](C)C(=O)N[C@H](C(=O)N[C@@H](Cc1ccccc1)C(=O)NCC(=O)N[C@@H](CCCCN)C(=O)N[C@H](C(=O)O)C(C)C)C(C)C)C(C)C)C(C)C [FLGSVFKSASKVFPAVFGKV] | –
11 | – | – | – | CC[C@H](C)[C@H](NC(=O)[C@H](CCCCN)NC(=O)[C@H](CO)NC(=O)[C@H](C)NC(=O)[C@H](Cc1c[nH]c2ccccc12)NC(=O)CN)C(=O)NCC(=O)N[C@@H](CCC(N)=O)C(=O)N[C@@H](C)C(=O)N[C@@H](CC(C)C)C(=O)NCC(=O)N[C@@H](CCCCN)C(=O)N[C@H](C(=O)N[C@@H](C)C(=O)N[C@@H](CCCCN)C(=O)N[C@H](C(=O)NCC(=O)N[C@@H](CC(C)C)C(=O)N[C@@H](CCC(N)=O)C(=O)N[C@@H](CCC(N)=O)C(=O)N[C@@H](Cc1ccccc1)C(=O)N[C@H](C(=O)N[C@@H](CCC(N)=O)C(=O)N1CCC[C@H]1C(=O)N[C@@H](CCCCN)C(=O)O)[C@@H](C)CC)C(C)C)C(C)C [GWASKIGQALGKVAKVGLQQFIQPK] | MIC [4]: 12.5 µM (≈ 33.2 µg/mL); MIC [5]: > 100 µM
12 | > 129 µM | – | ≥ 129 µM | CC[C@H](C)[C@H](NC(=O)[C@@H](NC(=O)[C@H](CO)NC(=O)[C@H](CCCCN)NC(=O)[C@H](C)NC(=O)[C@@H](NC(=O)[C@H](CCCCN)NC(=O)[C@@H](NC(=O)[C@@H](N)CO)C(C)C)C(C)C)C(C)C)C(=O)N1CCC[C@H]1C(=O)N[C@@H](CO)C(=O)N[C@@H](C)C(=O)N[C@H](C(=O)N[C@@H](Cc1ccccc1)C(=O)N[C@@H](C)C(=O)NCC(=O)NCC(=O)N[C@@H](CCCCN)C(=O)N[C@H](C(=O)N[C@@H](Cc1ccccc1)C(=O)O)C(C)C)C(C)C [SVKVAKSVIPSAVFAGGKVF] | –
13 | > 122 µM | – | ≥ 122 µM | CC[C@H](C)[C@H](NC(=O)[C@H](CCCCN)NC(=O)[C@@H](NC(=O)[C@@H](NC(=O)[C@@H](NC(=O)[C@H](CCC(N)=O)NC(=O)[C@H](C)NC(=O)CNC(=O)[C@H](CO)NC(=O)[C@H](CCCCN)NC(=O)[C@H](CCC(N)=O)NC(=O)[C@H](C)NC(=O)[C@H](CCCCN)NC(=O)[C@H](CCCCN)NC(=O)[C@H](C)N)[C@@H](C)O)[C@@H](C)CC)C(C)C)C(=O)N[C@@H](Cc1ccccc1)C(=O)N[C@@H](C)C(=O)N[C@@H](CCCCN)C(=O)NCC(=O)N[C@@H](CCSC)C(=O)O [AKKAQKSGAQTIVKIFAKGM] | –
14 | – | – | – | CC[C@H](C)[C@H](NC(=O)[C@H](C)NC(=O)[C@@H](NC(=O)[C@H](CCCCN)NC(=O)[C@H](C)NC(=O)[C@H](CC(C)C)NC(=O)[C@H](CCCCN)NC(=O)CNC(=O)[C@H](CC(C)C)NC(=O)[C@@H](NC(=O)[C@H](CO)NC(=O)CNC(=O)[C@H](C)NC(=O)[C@H](CCCCN)NC(=O)[C@H](CO)NC(=O)[C@H](C)NC(=O)[C@H](CCSC)NC(=O)CN)C(C)C)C(C)C)C(=O)NCC(=O)N[C@@H](C)C(=O)N[C@@H](CC(C)C)C(N)=O [GMASKAGSVLGKLAKVAIGAL] | MIC [4]: 25 µM (≈ 48.5 µg/mL); MIC [5]: 100 µM (≈ 194 µg/mL)
